# Data taken from publication PMC6891286, “Towards the Development of an In vivo Chemical Probe for Cyclin G Associated Kinase (GAK)” (Molecules, 2019).
# Key:
# Test in all cases: KINOMEscan
# Format in all cases: binding
# Settings in all cases: 35 at 1 µM; read-out: % inhibition
# ERK4 = target: T1, ERK4 (Homo sapiens, UniProt P31152)
# T1 construct: purchased Eurofins DiscoverX (KINOMEscan)
# Protocol: (§1) KinomeScan Assay on 35 was performed as previously described at EuroFins DiscoverX (Fremont, CA, USA).
# JNK3 = target: T2, JNK3 (Homo sapiens, UniProt P53779)
# T2 construct: purchased Eurofins DiscoverX (KINOMEscan)
# Protocol: as §1
# CDKL1 = target: T3, CDKL1 (Homo sapiens, UniProt Q00532)
# T3 construct: purchased Eurofins DiscoverX (KINOMEscan)
# Protocol: as §1
# LIMK1 = target: T4, LIMK1 (Homo sapiens, UniProt P53667)
# T4 construct: purchased Eurofins DiscoverX (KINOMEscan)
# Protocol: as §1
# NEK6 = target: T5, NEK6 (Homo sapiens, UniProt Q9HC98)
# T5 construct: purchased Eurofins DiscoverX (KINOMEscan)
# Protocol: as §1
# RET(M918T) = target: T6, RET(M918T) (Homo sapiens, UniProt P07949, M918T)
# T6 construct: purchased Eurofins DiscoverX (KINOMEscan)
# Protocol: as §1
# ARK5 = target: T7, ARK5 (Homo sapiens, UniProt O60285)
# T7 construct: purchased Eurofins DiscoverX (KINOMEscan)
# Protocol: as §1
# FRK = target: T8, FRK (Homo sapiens, UniProt P42685)
# T8 construct: purchased Eurofins DiscoverX (KINOMEscan)
# Protocol: as §1
# DDR1 = target: T9, DDR1 (Homo sapiens, UniProt Q08345)
# T9 construct: purchased Eurofins DiscoverX (KINOMEscan)
# Protocol: as §1
# ACVRL1 = target: T10, ACVRL1 (Homo sapiens, UniProt P37023)
# T10 construct: purchased Eurofins DiscoverX (KINOMEscan)
# Protocol: as §1
# NEK3 = target: T11, NEK3 (Homo sapiens, UniProt P51956)
# T11 construct: purchased Eurofins DiscoverX (KINOMEscan)
# Protocol: as §1
# AMPK-alpha1 = target: T12, AMPK-alpha1 (Homo sapiens, UniProt Q13131)
# T12 construct: purchased Eurofins DiscoverX (KINOMEscan)
# T12 sequence (Q13131 whole entry): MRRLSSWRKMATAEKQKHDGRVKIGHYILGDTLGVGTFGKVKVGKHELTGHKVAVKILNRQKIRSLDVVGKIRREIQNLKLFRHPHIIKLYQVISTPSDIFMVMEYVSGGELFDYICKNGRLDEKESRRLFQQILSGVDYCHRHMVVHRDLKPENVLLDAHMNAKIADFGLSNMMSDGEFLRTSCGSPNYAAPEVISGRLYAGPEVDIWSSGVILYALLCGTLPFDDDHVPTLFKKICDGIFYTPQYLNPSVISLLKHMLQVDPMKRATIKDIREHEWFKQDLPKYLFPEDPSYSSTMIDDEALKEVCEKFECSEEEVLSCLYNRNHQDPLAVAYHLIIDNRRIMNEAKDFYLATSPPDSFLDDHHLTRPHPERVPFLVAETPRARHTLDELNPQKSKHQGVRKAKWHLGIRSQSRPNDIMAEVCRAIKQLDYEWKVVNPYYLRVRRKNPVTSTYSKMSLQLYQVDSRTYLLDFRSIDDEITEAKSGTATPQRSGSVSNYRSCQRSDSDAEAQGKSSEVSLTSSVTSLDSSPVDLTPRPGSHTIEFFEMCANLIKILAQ
# Protocol: as §1
# FGFR3(G697C) = target: T13, FGFR3(G697C) (Homo sapiens, UniProt P22607, G697C)
# T13 construct: purchased Eurofins DiscoverX (KINOMEscan)
# Protocol: as §1
# SBK1 = target: T14, SBK1 (Homo sapiens, UniProt Q52WX2)
# T14 construct: purchased Eurofins DiscoverX (KINOMEscan)
# Protocol: as §1
# MST1 = target: T15, MST1 (Homo sapiens, UniProt Q13043)
# T15 construct: purchased Eurofins DiscoverX (KINOMEscan)
# Protocol: as §1
# TLK1 = target: T16, TLK1 (Homo sapiens, UniProt Q9UKI8)
# T16 construct: purchased Eurofins DiscoverX (KINOMEscan)
# Protocol: as §1
# [1] = target: T17, ABL1(Q252H)-nonphosphorylated (Homo sapiens, UniProt P00519, Q252H)
# T17 construct: purchased Eurofins DiscoverX (KINOMEscan)
# Protocol: as §1
# BMPR2 = target: T18, BMPR2 (Homo sapiens, UniProt Q13873)
# T18 construct: purchased Eurofins DiscoverX (KINOMEscan)
# T18 sequence (Q13873 27-1038): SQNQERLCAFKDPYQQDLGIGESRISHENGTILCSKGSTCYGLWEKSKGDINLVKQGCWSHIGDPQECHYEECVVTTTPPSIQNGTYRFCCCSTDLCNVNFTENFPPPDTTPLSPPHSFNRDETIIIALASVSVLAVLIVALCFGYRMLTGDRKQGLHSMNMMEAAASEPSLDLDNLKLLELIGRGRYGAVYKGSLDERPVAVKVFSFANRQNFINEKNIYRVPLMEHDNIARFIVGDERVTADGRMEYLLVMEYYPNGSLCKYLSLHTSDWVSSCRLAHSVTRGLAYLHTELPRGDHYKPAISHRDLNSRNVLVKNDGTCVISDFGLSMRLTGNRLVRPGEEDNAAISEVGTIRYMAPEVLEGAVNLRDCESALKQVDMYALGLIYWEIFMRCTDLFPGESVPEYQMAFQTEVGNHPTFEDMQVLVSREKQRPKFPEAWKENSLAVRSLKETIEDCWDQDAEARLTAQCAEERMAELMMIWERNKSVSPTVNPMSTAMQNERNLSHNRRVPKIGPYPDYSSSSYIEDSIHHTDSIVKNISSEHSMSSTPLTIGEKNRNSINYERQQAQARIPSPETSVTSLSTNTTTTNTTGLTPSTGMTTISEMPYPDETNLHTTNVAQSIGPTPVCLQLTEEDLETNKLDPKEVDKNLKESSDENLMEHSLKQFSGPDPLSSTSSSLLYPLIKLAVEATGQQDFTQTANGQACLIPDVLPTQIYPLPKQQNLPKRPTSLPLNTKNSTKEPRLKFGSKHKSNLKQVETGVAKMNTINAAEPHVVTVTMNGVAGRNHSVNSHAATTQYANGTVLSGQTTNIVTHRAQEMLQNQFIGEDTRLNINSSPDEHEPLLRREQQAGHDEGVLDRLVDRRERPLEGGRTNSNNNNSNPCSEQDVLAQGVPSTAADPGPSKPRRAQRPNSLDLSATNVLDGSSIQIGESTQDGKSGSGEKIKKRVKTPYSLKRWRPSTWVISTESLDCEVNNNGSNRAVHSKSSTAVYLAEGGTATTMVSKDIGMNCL
# Protocol: as §1
# ALK = target: T19, ALK (Homo sapiens, UniProt Q9UM73)
# T19 construct: purchased Eurofins DiscoverX (KINOMEscan)
# Protocol: as §1
# YSK4 = target: T20, YSK4 (Homo sapiens, UniProt Q56UN5)
# T20 construct: purchased Eurofins DiscoverX (KINOMEscan)
# Protocol: as §1
# MEK3 = target: T21, MEK3 (Homo sapiens, UniProt P46734)
# T21 construct: purchased Eurofins DiscoverX (KINOMEscan)
# Protocol: as §1
# CDK4 = target: T22, CDK4 (Homo sapiens, UniProt P11802)
# T22 construct: purchased Eurofins DiscoverX (KINOMEscan)
# Protocol: as §1
# AKT2 = target: T23, AKT2 (Homo sapiens, UniProt P31751)
# T23 construct: purchased Eurofins DiscoverX (KINOMEscan)
# Protocol: as §1
# PDPK1 = target: T24, PDPK1 (Homo sapiens, UniProt O15530)
# T24 construct: purchased Eurofins DiscoverX (KINOMEscan)
# Protocol: as §1
# PLK1 = target: T25, PLK1 (Homo sapiens, UniProt P53350)
# T25 construct: purchased Eurofins DiscoverX (KINOMEscan)
# Protocol: as §1
# KIT(D816V) = target: T26, KIT(D816V) (Homo sapiens, UniProt P10721, D816V)
# T26 construct: purchased Eurofins DiscoverX (KINOMEscan)
# Protocol: as §1
# FLT3(D835Y) = target: T27, FLT3(D835Y) (Homo sapiens, UniProt P36888, D835Y)
# T27 construct: purchased Eurofins DiscoverX (KINOMEscan)
# Protocol: as §1
# EPHA7 = target: T28, EPHA7 (Homo sapiens, UniProt Q15375)
# T28 construct: purchased Eurofins DiscoverX (KINOMEscan)
# Protocol: as §1
# CTK = target: T29, CTK (Homo sapiens, UniProt P42679)
# T29 construct: purchased Eurofins DiscoverX (KINOMEscan)
# Protocol: as §1
# EGFR(T790M) = target: T30, EGFR(T790M) (Homo sapiens, UniProt P00533, T790M)
# T30 construct: purchased Eurofins DiscoverX (KINOMEscan)
# Protocol: as §1
# RIOK1 = target: T31, RIOK1 (Homo sapiens, UniProt Q9BRS2)
# T31 construct: purchased Eurofins DiscoverX (KINOMEscan)
# Protocol: as §1
# PIK3CA(C420R) = target: T32, PIK3CA(C420R) (Homo sapiens, UniProt P42336, C420R)
# T32 construct: purchased Eurofins DiscoverX (KINOMEscan)
# Protocol: as §1
# MAP3K1 = target: T33, MAP3K1 (Homo sapiens, UniProt Q13233)
# T33 construct: purchased Eurofins DiscoverX (KINOMEscan)
# T33 sequence (Q13233 whole entry): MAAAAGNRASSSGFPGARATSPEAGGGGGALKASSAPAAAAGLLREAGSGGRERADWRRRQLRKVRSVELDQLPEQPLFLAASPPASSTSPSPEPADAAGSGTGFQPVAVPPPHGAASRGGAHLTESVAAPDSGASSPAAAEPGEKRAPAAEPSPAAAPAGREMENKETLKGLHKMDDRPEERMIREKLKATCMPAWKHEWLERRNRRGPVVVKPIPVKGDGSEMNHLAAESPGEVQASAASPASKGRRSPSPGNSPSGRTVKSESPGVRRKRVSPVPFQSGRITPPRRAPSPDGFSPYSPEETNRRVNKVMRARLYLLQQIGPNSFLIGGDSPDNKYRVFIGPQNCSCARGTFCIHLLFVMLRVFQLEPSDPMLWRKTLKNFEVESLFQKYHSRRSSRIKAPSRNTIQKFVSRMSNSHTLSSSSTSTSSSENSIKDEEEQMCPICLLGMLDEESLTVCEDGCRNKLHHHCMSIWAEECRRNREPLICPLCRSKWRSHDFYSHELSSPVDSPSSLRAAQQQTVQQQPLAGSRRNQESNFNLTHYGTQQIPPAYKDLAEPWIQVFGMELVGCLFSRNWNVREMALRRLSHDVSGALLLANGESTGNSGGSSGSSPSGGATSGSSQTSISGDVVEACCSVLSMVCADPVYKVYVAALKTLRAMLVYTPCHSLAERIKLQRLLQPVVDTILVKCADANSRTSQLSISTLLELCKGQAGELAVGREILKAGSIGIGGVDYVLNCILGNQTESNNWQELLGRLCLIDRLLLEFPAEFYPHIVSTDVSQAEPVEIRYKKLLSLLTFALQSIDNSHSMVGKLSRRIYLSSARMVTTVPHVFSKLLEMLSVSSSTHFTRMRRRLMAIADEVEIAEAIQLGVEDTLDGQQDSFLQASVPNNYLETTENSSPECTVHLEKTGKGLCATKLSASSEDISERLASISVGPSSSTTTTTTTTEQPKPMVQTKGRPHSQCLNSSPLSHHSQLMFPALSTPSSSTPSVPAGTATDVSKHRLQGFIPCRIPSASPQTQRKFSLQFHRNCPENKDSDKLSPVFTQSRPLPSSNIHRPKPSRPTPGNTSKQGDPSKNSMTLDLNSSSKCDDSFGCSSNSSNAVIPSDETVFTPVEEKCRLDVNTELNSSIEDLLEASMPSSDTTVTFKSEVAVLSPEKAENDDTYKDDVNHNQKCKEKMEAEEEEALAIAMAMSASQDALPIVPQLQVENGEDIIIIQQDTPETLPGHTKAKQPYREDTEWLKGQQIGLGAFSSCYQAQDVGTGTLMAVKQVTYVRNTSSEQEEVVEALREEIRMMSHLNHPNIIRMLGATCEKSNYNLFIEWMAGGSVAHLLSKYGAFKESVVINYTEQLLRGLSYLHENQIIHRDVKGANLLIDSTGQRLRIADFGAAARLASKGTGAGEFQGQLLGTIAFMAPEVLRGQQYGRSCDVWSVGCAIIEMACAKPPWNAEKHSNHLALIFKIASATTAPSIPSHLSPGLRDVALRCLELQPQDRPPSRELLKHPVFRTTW
# Protocol: as §1
# YSK1 = target: T34, YSK1 (Homo sapiens, UniProt O00506)
# T34 construct: purchased EuroFins DiscoverX (Fremont, CA, USA)
# Protocol: as §1
# FAK = target: T35, FAK (Homo sapiens, UniProt Q05397)
# T35 construct: purchased Eurofins DiscoverX (KINOMEscan)
# T35 sequence (Q05397 whole entry): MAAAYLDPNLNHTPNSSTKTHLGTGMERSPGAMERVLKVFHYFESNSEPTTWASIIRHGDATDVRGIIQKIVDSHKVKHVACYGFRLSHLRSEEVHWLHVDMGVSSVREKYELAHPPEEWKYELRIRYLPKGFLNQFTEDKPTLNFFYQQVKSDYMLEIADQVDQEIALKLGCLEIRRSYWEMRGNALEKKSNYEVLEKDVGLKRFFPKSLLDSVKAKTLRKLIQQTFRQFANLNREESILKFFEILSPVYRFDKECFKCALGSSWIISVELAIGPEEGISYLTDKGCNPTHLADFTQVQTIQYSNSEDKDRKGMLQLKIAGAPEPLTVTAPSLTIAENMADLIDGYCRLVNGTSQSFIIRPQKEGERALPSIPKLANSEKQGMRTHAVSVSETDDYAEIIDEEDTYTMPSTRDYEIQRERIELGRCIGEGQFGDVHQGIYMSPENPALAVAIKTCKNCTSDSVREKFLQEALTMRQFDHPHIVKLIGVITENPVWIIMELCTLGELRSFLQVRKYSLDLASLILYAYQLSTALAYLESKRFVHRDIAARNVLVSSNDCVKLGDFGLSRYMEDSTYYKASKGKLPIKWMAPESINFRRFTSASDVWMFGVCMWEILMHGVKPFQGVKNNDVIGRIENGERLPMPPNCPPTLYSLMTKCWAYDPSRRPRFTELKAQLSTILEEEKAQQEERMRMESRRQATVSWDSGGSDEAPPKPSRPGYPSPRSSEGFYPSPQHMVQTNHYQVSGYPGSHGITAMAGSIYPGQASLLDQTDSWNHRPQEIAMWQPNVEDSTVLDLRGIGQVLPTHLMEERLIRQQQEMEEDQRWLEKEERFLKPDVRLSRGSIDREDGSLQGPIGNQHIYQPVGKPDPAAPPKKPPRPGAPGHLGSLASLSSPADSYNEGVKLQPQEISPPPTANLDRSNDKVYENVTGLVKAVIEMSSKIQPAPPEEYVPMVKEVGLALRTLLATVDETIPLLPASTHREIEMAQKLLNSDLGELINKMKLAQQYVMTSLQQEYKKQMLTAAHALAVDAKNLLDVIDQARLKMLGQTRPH
# Protocol: as §1
# CSNK1A1 = target: T36, CSNK1A1 (Homo sapiens, UniProt P48729)
# T36 construct: purchased Eurofins DiscoverX (KINOMEscan)
# T36 sequence (P48729 whole entry): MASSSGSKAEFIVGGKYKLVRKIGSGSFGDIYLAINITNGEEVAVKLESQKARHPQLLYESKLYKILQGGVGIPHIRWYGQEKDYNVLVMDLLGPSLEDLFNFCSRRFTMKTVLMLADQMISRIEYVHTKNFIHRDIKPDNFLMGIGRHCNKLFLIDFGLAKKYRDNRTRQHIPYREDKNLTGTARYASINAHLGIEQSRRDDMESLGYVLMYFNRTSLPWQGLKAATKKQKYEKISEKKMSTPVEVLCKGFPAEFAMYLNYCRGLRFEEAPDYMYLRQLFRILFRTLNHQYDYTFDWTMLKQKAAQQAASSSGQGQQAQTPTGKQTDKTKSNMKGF
# Protocol: as §1
# CIT = target: T37, CIT (Homo sapiens, UniProt O14578)
# T37 construct: purchased Eurofins DiscoverX (KINOMEscan)
# Protocol: as §1
# GRK3 = target: T38, GRK3 (Homo sapiens, UniProt P35626)
# T38 construct: purchased Eurofins DiscoverX (KINOMEscan)
# Protocol: as §1
# AKT3 = target: T39, AKT3 (Homo sapiens, UniProt Q9Y243)
# T39 construct: purchased Eurofins DiscoverX (KINOMEscan)
# Protocol: as §1
# BIKE = target: T40, BIKE (Homo sapiens, UniProt Q9NSY1)
# T40 construct: purchased Eurofins DiscoverX (KINOMEscan)
# Protocol: as §1
# SLK = target: T41, SLK (Homo sapiens, UniProt Q9H2G2)
# T41 construct: purchased Eurofins DiscoverX (KINOMEscan)
# Protocol: as §1
# IGF1R = target: T42, IGF1R (Homo sapiens, UniProt P08069)
# T42 construct: purchased Eurofins DiscoverX (KINOMEscan)
# Protocol: as §1
# PIK3CA(H1047L) = target: T43, PIK3CA(H1047L) (Homo sapiens, UniProt P42336, H1047L)
# T43 construct: purchased Eurofins DiscoverX (KINOMEscan)
# Protocol: as §1
# T1 sequence (P31152 whole entry): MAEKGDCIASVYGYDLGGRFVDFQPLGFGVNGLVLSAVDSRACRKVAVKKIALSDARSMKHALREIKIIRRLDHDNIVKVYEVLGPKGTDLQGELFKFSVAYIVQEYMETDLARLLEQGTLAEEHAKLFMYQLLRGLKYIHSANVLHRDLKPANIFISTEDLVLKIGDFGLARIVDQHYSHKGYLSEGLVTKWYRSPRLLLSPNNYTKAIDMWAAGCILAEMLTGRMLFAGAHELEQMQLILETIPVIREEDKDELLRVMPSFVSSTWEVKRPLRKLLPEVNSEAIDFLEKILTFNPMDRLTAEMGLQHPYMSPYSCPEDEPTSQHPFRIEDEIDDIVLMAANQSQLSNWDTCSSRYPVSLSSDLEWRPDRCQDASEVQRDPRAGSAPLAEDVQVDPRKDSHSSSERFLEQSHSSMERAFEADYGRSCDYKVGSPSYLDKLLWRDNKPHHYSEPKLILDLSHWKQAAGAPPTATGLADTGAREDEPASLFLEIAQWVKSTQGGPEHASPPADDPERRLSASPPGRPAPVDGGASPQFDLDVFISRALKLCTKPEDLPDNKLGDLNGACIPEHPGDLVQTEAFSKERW
smiles,measurement,setting,value
"Brc1ccc2nccc(Nc3ccc4cn[nH]c4c3)c2c1 [Compound 35, 6-Bromo-N-(1H-indazol-6-yl)quinolin-4-amine]",activity at 1 µM,ERK4,97%
same,activity at 1 µM,JNK3,100%
same,activity at 1 µM,CDKL1,47%
same,activity at 1 µM,LIMK1,100%
same,activity at 1 µM,NEK6,100%
same,activity at 1 µM,RET(M918T),100%
same,activity at 1 µM,ARK5,100%
same,activity at 1 µM,FRK,100%
same,activity at 1 µM,DDR1,79%
same,activity at 1 µM,ACVRL1,100%
same,activity at 1 µM,NEK3,89%
same,activity at 1 µM,AMPK-alpha1,100%
same,activity at 1 µM,FGFR3(G697C),100%
same,activity at 1 µM,SBK1,99%
same,activity at 1 µM,MST1,100%
same,activity at 1 µM,TLK1,95%
same,activity at 1 µM,[1],58%
same,activity at 1 µM,BMPR2,100%
same,activity at 1 µM,ALK,100%
same,activity at 1 µM,YSK4,98%
same,activity at 1 µM,MEK3,86%
same,activity at 1 µM,CDK4,78%
same,activity at 1 µM,AKT2,100%
same,activity at 1 µM,PDPK1,100%
same,activity at 1 µM,PLK1,100%
same,activity at 1 µM,KIT(D816V),100%
same,activity at 1 µM,FLT3(D835Y),100%
same,activity at 1 µM,EPHA7,100%
same,activity at 1 µM,CTK,93%
same,activity at 1 µM,EGFR(T790M),78%
same,activity at 1 µM,RIOK1,100%
same,activity at 1 µM,PIK3CA(C420R),100%
same,activity at 1 µM,MAP3K1,86%
same,activity at 1 µM,YSK1,100%
same,activity at 1 µM,FAK,99%
same,activity at 1 µM,CSNK1A1,62%
same,activity at 1 µM,CIT,86%
same,activity at 1 µM,GRK3,76%
same,activity at 1 µM,AKT3,100%
same,activity at 1 µM,BIKE,100%
same,activity at 1 µM,SLK,100%
same,activity at 1 µM,IGF1R,100%
same,activity at 1 µM,PIK3CA(H1047L),87%
